As a reminder, the pEC50 is the negative decadic logarithm of the EC50, by convention in mol/L. Usually pIC50 stands for the negative decadic logarithm of the IC50, by convention in mol/L.

Molecules are shown by their SMILES. pEC50, pIC50: −log10 of the molar value. Like-named read-outs stand apart in the source and are kept apart here.

In patent US11046686B2, “Thiadiazole IRAK4 compounds” (Gilead Sciences, Inc., priority 2018, dated 2021) one finds EC50 and IC50 data, which are given here for 20 compounds.

Test [1] relates to TNFα. The experiment in a line: IRAK4 Monocyte TNFα Cell Based Assay. Set-up: species or system human. The essentials: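 TNFα release quantified by HTRF (cryptate/XL665 antibody pair, overnight at RT) after 1 h compound pre-incubation (0.1% DMSO) and 4 h LPS challenge at 50 pg/ml, 37 °C, 5,000 monocytes per well. Signal ratio normalised between unstimulated (0%) and stimulated (100%) controls.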

In test [2] the target is IRAK4 enzyme (Homo sapiens (Human), UniProt Q9NWZ3). The experiment in a line: IRAK4 Biochemical Assay (TR-FRET, STK1 KinEASE). The method, then:
IRAK4 enzyme (Carna Biosciences, Chuo-ku, Kobe, Japan) activity was measured by detecting phosphorylated peptide substrate formation using an antibody against the phosphorylated peptide substrate. This is a time-resolved fluorescence resonance energy transfer (TR-FRET) immunoassay, based on the STK1 KinEASE Assay (Cisbio, Bedford, Mass.). The assay was designed as a simple two-step, endpoint assay (a 5 μl enzyme reaction followed by 5 μl stop and detect Solution) performed in ProxiPlate-384 Plus plates (Perkin Elmer, Waltham, Mass.). […] Compounds diluted in DMSO were spotted into 384 well plates using a Labcyte® Echo 550 Liquid Handling System prior to addition of IRAK4 enzyme and peptide substrate. Reaction solutions were delivered using a Multi-Flo (Bio-Tek Instruments). The enzyme and peptide solution was incubated with compound for 15 minutes at room temp before the reaction was initiated by the addition of ATP. The standard 5 μl reaction mixture contained 500 μM ATP, […] peptide (STK1 Peptide), 0.75 nM of IRAK4 in reaction buffer (50 mM HEPES, pH 7.0, 0.02% NaN3, 0.01% BSA, 0.1 mM Orthovanadate, 5 mM […], 0.025% NP-40, 1 mM DTT). After 120 min of incubation at room temperature, 5 μl of Stop and Detect Solution (1:100 Cryptate labeled anti-phosphorylated peptide antibody solution and 125 nM Tracer in a 50 mM HEPES pH 7.0 detection buffer containing sufficient EDTA) was added. The plate was then further incubated for 60 minutes at room temperature and read on Envision 2103 Multilabeled reader (PerkinElmer) with excitation/emission/FRET emission at 340 nm/615 nm665 nm, respectively. Fluorescence intensities at 615 nm and 665 nm emission wavelengths were expressed as aratio (665 nm/615 nm). Percentage of inhibition was calculated as below: % Inhibition=100×(Ratiosample−Ratio0% Inhibition)/(Ratio100% Inhibition−Ratio0% Inhibition)
The 0% inhibition value comes from control wells lacking inhibitor.
On the technique in general: Time-resolved FRET reads energy transfer from a long-lived donor to a nearby acceptor.

Where [3] appears, read: Homo sapiens, Monocyte, human monocytes, second part of Table 2, compounds 33-343, unit inferred, read-out: EC50 MONO TNF HTRF.
Where [4] appears, read: Homo sapiens, Monocyte, human monocytes, LPS stimulated, compounds 1-32, read-out: EC50 TNF.
Setting [5] is: compounds 1-32, read-out: IC50 HTRF.

Sequence of IRAK4 enzyme (Q9NWZ3 whole entry): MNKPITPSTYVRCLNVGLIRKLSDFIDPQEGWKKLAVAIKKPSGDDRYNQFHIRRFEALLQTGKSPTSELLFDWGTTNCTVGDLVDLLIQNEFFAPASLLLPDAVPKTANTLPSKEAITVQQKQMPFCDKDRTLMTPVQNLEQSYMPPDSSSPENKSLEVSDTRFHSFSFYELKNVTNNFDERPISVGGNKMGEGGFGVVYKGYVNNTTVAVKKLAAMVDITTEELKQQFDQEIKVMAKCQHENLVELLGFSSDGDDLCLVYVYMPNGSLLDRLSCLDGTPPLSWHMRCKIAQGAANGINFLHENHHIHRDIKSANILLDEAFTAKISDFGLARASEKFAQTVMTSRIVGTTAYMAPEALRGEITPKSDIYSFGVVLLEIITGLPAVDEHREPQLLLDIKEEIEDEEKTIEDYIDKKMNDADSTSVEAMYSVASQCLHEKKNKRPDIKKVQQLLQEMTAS

With `CC(C)Nc1cc(-c2ccc3cc(C#N)cnn23)ncc1-c1nnc(N2CC[C@](C)(O)[C@@H](F)C2)s1` [Example 190, 7-(5-(5-((3S,4S)-3-fluoro-4-hydroxy-4-methylpiperidin-1-yl)-1,3,4-thiadiazol-2-yl)-4-(isopropylamino)pyridin-2-yl)pyrrolo[1,2-b]pyridazine-3-carbonitrile], the negative logarithm of the EC50 (pEC50) in test [1] (setting [3]) is 7.93. In test [2], this compound showed a pIC50 of 8.86.
On to `CC(C)Nc1cc(-c2ccc3cc(C#N)cnn23)ncc1-c1nnc(-c2ccc(N)cc2)s1` [Example 7, 7-(5-(5-(4-aminophenyl)-1,3,4-thiadiazol-2-yl)-4-(isopropylamino)pyridin-2-yl)pyrrolo[1,2-b]pyridazine-3-carbonitrile], for which the pEC50 in test [1] (setting [4]) is under 5.00. In addition, in test [2] (setting [5]), the negative-log IC50 (pIC50) was 8.05.
For `CC(C)Nc1cc(-c2ccc3cc(C#N)cnn23)ncc1-c1nnc(N2CCOC(F)(F)C2)s1` [Example 167, 7-(5-(5-(2,2-difluoromorpholino)-1,3,4-thiadiazol-2-yl)-4-(isopropylamino)pyridin-2-yl)pyrrolo[1,2-b]pyridazine-3-carbonitrile], the pEC50 in test [1] (setting [3]) was 6.00. In addition, the negative-log IC50 (pIC50) in test [2] was 8.74.
On to `CC(C)Nc1cc(-c2ccc3cc(C#N)cnn23)ncc1-c1nnc(C2CCN(CC(F)F)CC2)s1` [Example 133, 7-(5-(5-(1-(2,2-difluoroethyl)piperidin-4-yl)-1,3,4-thiadiazol-2-yl)-4-(isopropylamino)pyridin-2-yl)pyrrolo[1,2-b]pyridazine-3-carbonitrile], for which the negative-log EC50 (pEC50) in test [1] (setting [3]) was 6.27. In test [2], the pIC50 was 8.83.
With `CC(C)Nc1cc(-c2ccc3cc(C#N)cnn23)ncc1-c1nnc(N2C[C@H]3CC[C@@H](C2)[C@@H]3NC(=O)C2CN(C)C2)s1` [Example 102, N-((1R,5S,8s)-3-(5-(6-(3-cyanopyrrolo[1,2-b]pyridazin-7-yl)-4-(isopropylamino)pyridin-3-yl)-1,3,4-thiadiazol-2-yl)-3-azabicyclo[3.2.1]octan-8-yl)-1-methylazetidine-3-carboxamide], the pEC50 in test [1] (human monocytes, second part of Table 2, compounds 33-343, unit inferred, read-out: EC50 MONO TNF HTRF) is 7.50. Further, the pIC50 in test [2] (second part of Table 2, compounds 33-343, unit inferred, read-out: IC50 IRAK4-HTBS) is 8.91.
As to `CC(=O)NC12CCC(c3nnc(-c4cnc(-c5ccc6cc(C#N)cnn56)cc4NC(C)C)s3)(CC1)CC2` [Compound 280, N-(4-(5-(6-(3-cyanopyrrolo[1,2-b]pyridazin-7-yl)-4-(isopropylamino)pyridin-3-yl)-1,3,4-thiadiazol-2-yl)bicyclo[2.2.2]octan-1-yl)acetamide], the pEC50 in test [1] (setting [3]) is 8.13. This compound showed a pIC50 in test [2] of 8.99.
On to `CC(=O)N[C@H]1CCN(c2nnc(-c3cnc(-c4ccc5cc(C#N)cnn45)cc3N[C@H](C)C#N)s2)CC1(F)F` [Example 152, N-((S)-1-(5-(4-(((R)-1-cyanoethyl)amino)-6-(3-cyanopyrrolo[1,2-b]pyridazin-7-yl)pyridin-3-yl)-1,3,4-thiadiazol-2-yl)-3,3-difluoropiperidin-4-yl)acetamide], for which the pEC50 in test [1] (setting [3]) was 7.97. The pIC50 in test [2] is 9.24.
For the compound `CC(=O)Nc1nnc(-c2cnc(-c3ccc4cc(C#N)cnn34)cc2NC(C)C)s1` [Example 19, N-(5-(6-(3-cyanopyrrolo[1,2-b]pyridazin-7-yl)-4-(isopropylamino)pyridin-3-yl)-1,3,4-thiadiazol-2-yl)acetamide], in test [1] (setting [4]), the pEC50 is 5.23. The pIC50 in test [2] (setting [5]) was 9.00.
For `CC(C)Nc1cc(-c2ccc3cc(C#N)cnn23)ncc1-c1nnc(NC[C@@H](F)C(C)(C)O)s1` [Example 27, (R)-7-(5-(5-((2-fluoro-3-hydroxy-3-methylbutyl)amino)-1,3,4-thiadiazol-2-yl)-4-(isopropylamino)pyridin-2-yl)pyrrolo[1,2-b]pyridazine-3-carbonitrile], the pEC50 in test [1] (setting [4]) was 7.17. For the same compound, in test [2] (setting [5]), the negative-log IC50 (pIC50) is 9.00.
`CC(C)Nc1cc(-c2ccc3cc(C#N)cnn23)ncc1-c1nnc(N2CC3CCC(C2)O3)s1` [Compound 235, 7-(5-(5-(8-oxa-3-azabicyclo[3.2.1]octan-3-yl)-1,3,4-thiadiazol-2-yl)-4-(isopropylamino)pyridin-2-yl)pyrrolo[1,2-b]pyridazine-3-carbonitrile]: in test [1] (setting [3]), the pEC50 is 8.36. The compound further gave a pIC50 in test [2] of 9.32.
On to `CC(=O)NC1CCC(F)(c2nnc(-c3cnc(-c4ccc5cc(C#N)cnn45)cc3NC(C)C)s2)CC1` (stereo not shown) [Example 194, N-(4-(5-(6-(3-cyanopyrrolo[1,2-b]pyridazin-7-yl)-4-(isopropylamino)pyridin-3-yl)-1,3,4-thiadiazol-2-yl)-4-fluorocyclohexyl)acetamide], for which the pEC50 in test [1] (setting [3]) is 7.19. Also, the pIC50 in test [2] was 9.12.
`CC(=O)N1[C@@H]2COC[C@H]1CN(c1nnc(-c3cnc(-c4ccc5cc(C#N)cnn45)cc3NC(C)C)s1)C2` [Compound 265, 7-(5-(5-((1R,5S)-9-acetyl-3-oxa-7,9-diazabicyclo[3.3.1]nonan-7-yl)-1,3,4-thiadiazol-2-yl)-4-(isopropylamino)pyridin-2-yl)pyrrolo[1,2-b]pyridazine-3-carbonitrile]: in test [1] (Homo sapiens, Monocyte, read-out: EC50 MONO TNF HTRF), the pEC50 was 7.95. In addition, the pIC50 in test [2] is 8.61.
With `CC(=O)N1CCN(c2nnc(-c3cnc(-c4ccc5cc(C#N)cnn45)cc3NC(C)C)s2)C2CC21` (stereo not shown) [Compound 267, 7-(5-(5-(5-acetyl-2,5-diazabicyclo[4.1.0]heptan-2-yl)-1,3,4-thiadiazol-2-yl)-4-(isopropylamino)pyridin-2-yl)pyrrolo[1,2-b]pyridazine-3-carbonitrile], the pEC50 in test [1] (setting [3]) is 7.72. The compound also gave a pIC50 in test [2] of 9.19.
As for `CC(C)Nc1cc(-c2ccc3cc(C#N)cnn23)ncc1-c1nnc(N2C3COCC2C3)s1` [Compound 234, 7-(5-(5-(3-oxa-6-azabicyclo[3.1.1]heptan-6-yl)-1,3,4-thiadiazol-2-yl)-4-(isopropylamino)pyridin-2-yl)pyrrolo[1,2-b]pyridazine-3-carbonitrile], the pEC50 in test [1] (setting [3]) was 6.75. Also, the pIC50 in test [2] is 8.89.
On the same counts, the results for `CC(C)Nc1cc(-c2ccc3cc(C#N)cnn23)ncc1-c1nnc(N2CCS(=O)(=O)CC2)s1` [Compound 257, 7-(5-(5-(1,1-dioxidothiomorpholino)-1,3,4-thiadiazol-2-yl)-4-(isopropylamino)pyridin-2-yl)pyrrolo[1,2-b]pyridazine-3-carbonitrile] are 5.00 and 9.02.
The corresponding values for `CC(C)Nc1cc(-c2ccc3cc(C#N)cnn23)ncc1-c1nnc(N2CC(C)(O)C2)s1` [Example 286, 7-(5-(5-(3-hydroxy-3-methylazetidin-1-yl)-1,3,4-thiadiazol-2-yl)-4-(isopropylamino)pyridin-2-yl)pyrrolo[1,2-b]pyridazine-3-carbonitrile] are 7.67 and 9.20.
As to `CC(=O)N[C@@H]1[C@@H]2CC[C@H]1N(c1nnc(-c3cnc(-c4ccc5cc(C#N)cnn45)cc3NC(C)C)s1)C2` [Example 137, N-((1R,4R,7R)-2-(5-(6-(3-cyanopyrrolo[1,2-b]pyridazin-7-yl)-4-(isopropylamino)pyridin-3-yl)-1,3,4-thiadiazol-2-yl)-2-azabicyclo[2.2.1]heptan-7-yl)acetamide], the pEC50 in test [1] (setting [3]) is 8.19. The pIC50 in test [2] was 9.07.
As for `CC(C)Nc1cc(-c2ccc3cc(C#N)cnn23)ncc1-c1nnc(N2CC[C@@](C)(O)[C@H](F)C2)s1` [Example 191, 7-(5-(5-((3R,4R)-3-fluoro-4-hydroxy-4-methylpiperidin-1-yl)-1,3,4-thiadiazol-2-yl)-4-(isopropylamino)pyridin-2-yl)pyrrolo[1,2-b]pyridazine-3-carbonitrile], in test [1] (setting [3]), the pEC50 is 7.64. In addition, the pIC50 in test [2] was 8.94.
The corresponding values for `CC(=O)N[C@@H]1CCCN(c2nnc(-c3cnc(-c4ccc5cc(C#N)cnn45)cc3NC(C)C)s2)C1` [Example 296, (R)-N-(1-(5-(6-(3-cyanopyrrolo[1,2-b]pyridazin-7-yl)-4-(isopropylamino)pyridin-3-yl)-1,3,4-thiadiazol-2-yl)piperidin-3-yl)acetamide] are 6.00 and 8.99.
The corresponding values for `CC(C)Nc1cc(-c2ccc3cc(C#N)cnn23)ncc1-c1nnc(N2CC3CCCC(C3)C2)s1` [Example 295, 7-(5-(5-(3-azabicyclo[3.3.1]nonan-3-yl)-1,3,4-thiadiazol-2-yl)-4-(isopropylamino)pyridin-2-yl)pyrrolo[1,2-b]pyridazine-3-carbonitrile] are 6.00 and 7.24.
